For one data set, the target named is Opiate κ (OP2, KOP) (Homo sapiens, UniProt P41145). Kind of data set: Lead Profiling Screen – Eurofins Panlabs. Format: binding. Particulars: read-out: % inh at 10 μM.
A further data set deals with Phorbol Ester. Kind of data set: Lead Profiling Screen – Eurofins Panlabs. Format: binding, mouse.
A further data set addresses T1, Dopamine D2S (Homo sapiens, UniProt P14416).
T1 construct: Eurofins Panlabs (contract screen)
In words: Lead Profiling Screen – Eurofins Panlabs. Format: binding. Particulars: read-out: % inh at 10 μM.

The target in a further data set is T2, hCav1.2 (Homo sapiens, UniProt Q13936).
T2 construct: Charles River Laboratories
Kind of data set: Cardiac Ion Channel Panel – Charles River (QPatch HT patch clamp). Format: cell-based. The method, then:
(§1) page 17: Table S3. Cardiac Ion Channel Panel - Charles River Laboratories for VU6016235 Ion Channel Concentration Mean % Standard Standard n (μM) Inhibition Deviation Error hCav1.2 10 13.9 8.9 5.1 3 hCav3.2 10 6.7 2.7 1.4 4 hHCN2 10 2.6 1.9 1.1 3 hERG 10 10.9 0.9 0.4 4 hKv1.5 10 1.3 1.8 0.9 4 […] 10 4.1 5.6 2.8 4 hKv1.3 10 9 2.9 1.7 3 hNav1.5 (Tonic) 10 5.8 0.6 0.4 3 […] (Phasic) The in vitro effects of VU6016235 were evaluated at room temperature using the QPatch HT® (Sophion Bioscience A/S, Denmark), an automatic parallel patch clamp system. VU6016235 was evaluated at a concentration of 10 μM and tested in at least 3 cells (n ≥ 3). The duration of exposure to each test article concentration was at least 5 minutes. Rat Amphetamine-Induced Hyperlocomotion (AHL) Protocol Male Harlan Sprague Dawley rats with a mean body weight of 240 g (range 221-264 g) were tested in SmartFrame Open Field locomotor activity test chambers to automatically record locomotor activity. All […] for an additional 30 min with either vehicle or a dose of VU6016235 or the comparator M 4 PAM […] Next, rats were injected subcutaneously with vehicle or a dose of 0.75 mg/kg amphetamine and then monitored for an additional 60 min. Changes in locomotor activity were recorded for a total of 120 min. Locomotor data were expressed as the number of photobeam breaks/5 min intervals across the 120-min test session or as the total ambulation, calculated as sum of photobeam beam breaks from the time of amphetamine administration (60 min) until the end of the study (120 min). Time course data were analyzed by two-way ANOVA with main effects of treatment and time; changes in total ambulation were analyzed by one-way ANOVA followed by Dunnett's post hoc test (GraphPad Prism 7 [GraphPad Software, San Diego, CA]). For all tests, α ≤ 0.05 was considered to represent statistical significance. Finally, percent reversal data were calculated in Microsoft Excel using the following formula: Percent Reversal = 100 - {[(total ambulation in individual animal from t = 60 to t = 120) / (mean total ambulation S17
In general terms: The patch-clamp technique gives a direct electrical read-out from membranes.

The target in the next data set is T3, hCav3.2 (Homo sapiens, UniProt O95180).
T3 construct: Charles River Laboratories
Described as above. Format: cell-based. As to the method: as §1

The target in the next data set is T4, hHCN2 (Homo sapiens, UniProt Q9UL51).
T4 construct: Charles River Laboratories
The data set is described as above. Format: cell-based. As to the method:
as §1

The next data set has as its target T5, hNav1.5 (Tonic) (Homo sapiens, UniProt Q14524).
T5 construct: Charles River Laboratories
The data set is described as above. Format: cell-based. The method, then:
as §1

The next data set has as its target T6, hKvLQT1/minK (Homo sapiens, UniProt P51787).
T6 construct: Charles River Laboratories
Described as above. Format: cell-based. As to the method:
as §1

The next data set deals with T7, hNav1.5 (Phasic) (Homo sapiens, UniProt Q14524).
T7 construct: Charles River Laboratories
T7 sequence (Q14524 whole entry): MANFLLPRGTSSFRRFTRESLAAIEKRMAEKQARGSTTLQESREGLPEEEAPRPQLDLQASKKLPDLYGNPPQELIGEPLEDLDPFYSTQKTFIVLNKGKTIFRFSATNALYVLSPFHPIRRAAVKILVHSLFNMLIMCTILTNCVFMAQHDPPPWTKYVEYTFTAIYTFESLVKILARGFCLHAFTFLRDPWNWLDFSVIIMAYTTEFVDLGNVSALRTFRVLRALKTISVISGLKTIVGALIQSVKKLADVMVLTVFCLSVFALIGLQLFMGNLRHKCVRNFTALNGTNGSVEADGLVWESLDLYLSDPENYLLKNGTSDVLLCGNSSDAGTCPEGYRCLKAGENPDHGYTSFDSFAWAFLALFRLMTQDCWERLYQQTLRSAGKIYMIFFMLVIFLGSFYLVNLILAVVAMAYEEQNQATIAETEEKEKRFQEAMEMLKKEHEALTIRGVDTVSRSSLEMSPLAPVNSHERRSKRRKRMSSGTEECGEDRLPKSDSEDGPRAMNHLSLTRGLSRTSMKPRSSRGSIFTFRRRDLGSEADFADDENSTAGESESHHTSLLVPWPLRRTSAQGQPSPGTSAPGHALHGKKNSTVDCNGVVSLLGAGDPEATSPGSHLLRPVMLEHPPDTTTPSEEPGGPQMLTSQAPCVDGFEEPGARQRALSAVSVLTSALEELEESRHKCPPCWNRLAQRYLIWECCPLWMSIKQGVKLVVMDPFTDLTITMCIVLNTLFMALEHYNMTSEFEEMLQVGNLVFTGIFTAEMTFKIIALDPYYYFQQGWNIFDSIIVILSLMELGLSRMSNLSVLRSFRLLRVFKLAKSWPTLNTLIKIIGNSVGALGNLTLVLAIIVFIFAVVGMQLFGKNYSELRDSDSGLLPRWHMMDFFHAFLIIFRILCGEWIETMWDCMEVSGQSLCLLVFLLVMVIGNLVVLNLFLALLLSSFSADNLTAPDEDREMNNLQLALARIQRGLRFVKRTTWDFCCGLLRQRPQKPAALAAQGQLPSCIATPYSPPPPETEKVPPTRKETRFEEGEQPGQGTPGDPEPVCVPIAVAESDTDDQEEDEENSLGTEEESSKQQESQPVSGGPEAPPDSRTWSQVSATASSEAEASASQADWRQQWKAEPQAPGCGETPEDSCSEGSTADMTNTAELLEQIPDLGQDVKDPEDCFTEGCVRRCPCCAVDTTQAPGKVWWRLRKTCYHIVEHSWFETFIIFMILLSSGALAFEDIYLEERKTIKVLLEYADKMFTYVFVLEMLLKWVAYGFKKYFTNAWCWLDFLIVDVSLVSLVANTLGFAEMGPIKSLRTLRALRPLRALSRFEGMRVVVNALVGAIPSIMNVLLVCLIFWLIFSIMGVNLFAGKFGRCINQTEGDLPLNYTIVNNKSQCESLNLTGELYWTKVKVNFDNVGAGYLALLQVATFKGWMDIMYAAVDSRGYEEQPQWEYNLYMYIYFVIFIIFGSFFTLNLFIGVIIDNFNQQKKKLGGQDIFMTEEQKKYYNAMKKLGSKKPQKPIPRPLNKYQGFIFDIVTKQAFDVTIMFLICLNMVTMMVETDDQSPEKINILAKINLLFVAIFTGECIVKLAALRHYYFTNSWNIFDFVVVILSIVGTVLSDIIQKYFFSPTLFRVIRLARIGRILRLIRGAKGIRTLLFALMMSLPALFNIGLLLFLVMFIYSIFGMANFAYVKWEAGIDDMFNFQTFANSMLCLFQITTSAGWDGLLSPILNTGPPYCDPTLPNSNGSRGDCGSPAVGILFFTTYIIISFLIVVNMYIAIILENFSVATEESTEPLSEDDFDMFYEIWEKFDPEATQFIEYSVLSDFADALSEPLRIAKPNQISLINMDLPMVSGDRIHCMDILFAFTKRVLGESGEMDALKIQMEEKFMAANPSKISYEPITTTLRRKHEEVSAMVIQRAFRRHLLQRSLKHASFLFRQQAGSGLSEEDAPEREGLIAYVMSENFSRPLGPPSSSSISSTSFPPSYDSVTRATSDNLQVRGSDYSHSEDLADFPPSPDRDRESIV
The description is as above. Format: cell-based. The method, then:
as §1

The target in a further data set is T8, hKv1.3 (Homo sapiens, UniProt P22001).
T8 construct: Charles River Laboratories
The description is as above. Format: cell-based. The method, then:
as §1

The next data set has as its target T9, hERG (Homo sapiens, UniProt Q12809).
T9 construct: Charles River Laboratories
The data set is described as above. Format: cell-based. As to the method: as §1

The next data set addresses T10, hKv1.5 (Homo sapiens, UniProt P22460).
T10 construct: Charles River Laboratories
The description is as above. Format: cell-based. The method, then: as §1

A further data set has as its system 4 strains ± S9. In words: Mini Ames test. Format: cell-based.
The next data set deals with T11, Adrenergic α1B (Rattus norvegicus, UniProt P15823).
T11 construct: Eurofins Panlabs (contract screen)
In words: Lead Profiling Screen – Eurofins Panlabs. The note with it: read-out: % inh at 10 μM. Format: binding.

In a further data set the target is human M3 (Homo sapiens, UniProt P20309). Kind of data set: Calcium mobilization assay, muscarinic selectivity. Format: cell-based. (Calcium flux is commonly read through the fluorescence of an indicator in the cells.)
Chain of human M3 (P20309 whole entry): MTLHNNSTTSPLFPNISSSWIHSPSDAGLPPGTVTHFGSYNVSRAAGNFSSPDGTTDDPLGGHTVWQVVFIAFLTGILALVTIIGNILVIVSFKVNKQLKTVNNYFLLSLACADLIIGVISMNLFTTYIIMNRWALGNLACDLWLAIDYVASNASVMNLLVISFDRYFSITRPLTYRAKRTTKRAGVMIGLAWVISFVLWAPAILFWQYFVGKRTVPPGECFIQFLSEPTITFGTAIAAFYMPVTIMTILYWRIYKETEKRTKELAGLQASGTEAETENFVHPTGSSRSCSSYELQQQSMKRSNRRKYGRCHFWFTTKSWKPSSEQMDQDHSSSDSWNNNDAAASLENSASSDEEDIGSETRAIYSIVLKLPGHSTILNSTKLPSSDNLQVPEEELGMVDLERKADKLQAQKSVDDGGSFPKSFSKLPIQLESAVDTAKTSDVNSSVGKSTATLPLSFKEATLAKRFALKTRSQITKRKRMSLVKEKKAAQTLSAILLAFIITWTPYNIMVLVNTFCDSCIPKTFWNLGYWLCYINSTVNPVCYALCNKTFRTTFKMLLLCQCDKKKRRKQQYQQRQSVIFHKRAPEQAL
Data set [1] relates to amphetamine-induced hyperlocomotion in rats. In words: Rat amphetamine-induced hyperlocomotion (AHL). Format: in vivo. The note with it: for mean reversal of AHL: listed as VU6016235. The method, then:
Rat Amphetamine-Induced Hyperlocomotion (AHL) Protocol
Male Harlan Sprague Dawley rats with a mean body weight of 240 g (range 221-264 g) were tested in SmartFrame Open Field locomotor activity test chambers to automatically record locomotor activity. All rats were habituated in locomotor activity enclosures for 30 min, followed by pretreatment by oral gavage for an additional 30 min with either vehicle or a dose of VU6016235 or the comparator M 4 PAM VU0467154. Next, rats were injected subcutaneously with vehicle or a dose of 0.75 mg/kg amphetamine and then monitored for an additional 60 min. Changes in locomotor activity were recorded for a total of 120 min. Locomotor data were expressed as the number of photobeam breaks/5 min intervals across the 120-min test session or as the total ambulation, calculated as sum of photobeam beam breaks from the time of amphetamine administration (60 min) until the end of the study (120 min). Time course data were analyzed by two-way ANOVA with main effects of treatment and time; changes in total ambulation were analyzed by one-way ANOVA followed by Dunnett’s post hoc test (GraphPad Prism 7 [GraphPad Software, San Diego, CA]). For all tests, α ≤ 0.05 was considered to represent statistical significance.
Finally, percent reversal data were calculated in Microsoft Excel using the following formula: Percent Reversal = 100 - {[(total ambulation in individual animal from t = 60 to t = 120) / (mean total ambulation […]
from t=60 to t=120 in the VAMP group)] * 100}. Mean percent reversal ± S.E.M. was calculated for each dose group using GraphPad Prism 7.
At the end of this behavioral study, each rat was euthanized, then decapitated, and the plasma and brain tissues were collected for the evaluation of exposure levels of VU6016235-05 or VU0467154-9A by pharmacokinetic analysis. […]

The structures appear in SMILES notation.

These results are taken from article PMC11487561 (ACS Chemical Neuroscience, 2024).

T5 sequence (Q14524 whole entry): as the sequence (Q14524 whole entry) above
T1 sequence (P14416 1-414 isoform P14416-2): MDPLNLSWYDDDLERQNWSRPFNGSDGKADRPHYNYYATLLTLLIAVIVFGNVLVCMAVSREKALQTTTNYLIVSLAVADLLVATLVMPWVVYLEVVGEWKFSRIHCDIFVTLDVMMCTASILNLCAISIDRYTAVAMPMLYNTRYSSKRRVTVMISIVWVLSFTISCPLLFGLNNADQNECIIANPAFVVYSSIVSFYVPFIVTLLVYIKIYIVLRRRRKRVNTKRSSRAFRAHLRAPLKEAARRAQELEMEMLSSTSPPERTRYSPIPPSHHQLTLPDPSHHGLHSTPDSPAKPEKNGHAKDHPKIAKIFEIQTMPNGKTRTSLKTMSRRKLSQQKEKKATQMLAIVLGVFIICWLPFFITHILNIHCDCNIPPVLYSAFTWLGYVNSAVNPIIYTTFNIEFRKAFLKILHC

In the case of `Cc1nc(C)c2c(n1)sc1c(NCc3ccc(C(C)(C)O)cc3)nccc12` [22g], the inhibition at 10 µM on Opiate κ (OP2, KOP) was 4%; at Dopamine D2S it was -4%; against hCav1.2, 13.9%; against hCav3.2, 6.7%; at hHCN2 it was 2.6%; at hNav1.5 (Tonic) it was 5.8%. The inhibition at 10 µM at hKvLQT1/minK was 4.1%; against hNav1.5 (Phasic) it was 6.9%; at hKv1.3, 9%; at hERG, 10.9%; on hKv1.5, 1.3%; at Adrenergic α1B, 7%. Besides, the “% inh at 10 μM” value in the data set on Phorbol Ester was -1%. Moreover, the “Mini Ames test result” value in the data set with 4 strains ± S9 is given as “negative”. In addition, the “human M3 %Ach Max” value on human M3 is “inactive”. For the same compound, the “human M3 EC50” value at human M3 was “inactive”. In data set [1] (0.56 mg/kg p.o. + amphetamine 0.75 mg/kg s.c.), the “mean % reversal of AHL” value is given as 12.8 ± 3.9%. The “mean reversal of AHL” value in data set [1] (3 mg/kg p.o. + amphetamine 0.75 mg/kg s.c.) stood at 41.4%; in data set [1] (10 mg/kg p.o. + amphetamine 0.75 mg/kg s.c.) it was 54.2%. Besides, in [1] (oral administration), the “MED, reversal of AHL” value stood at 1 mg/kg.
